Measured values published in ChEMBL document CHEMBL4507272 (2021).

Assays:
[1] = biological target: Mitogen-activated protein kinase 12 (Homo sapiens) (UniProt P53778); conditions: Compound concentration 1000.0 nM
[2] = biological target: Serine/threonine-protein kinase 17A (Homo sapiens) (UniProt Q9UEE5); conditions: Compound concentration 1000.0 nM
[3] = biological target: Tyrosine-protein kinase BTK (Homo sapiens) (UniProt Q06187); conditions: Compound concentration 1000.0 nM
[4] = biological target: Dual specificity protein kinase TTK (Homo sapiens) (UniProt P33981); conditions: Compound concentration 1000.0 nM
[5] = biological target: Protein kinase C eta type (Homo sapiens) (UniProt P24723); conditions: Compound concentration 1000.0 nM
Sequence of Protein kinase C eta type (Homo sapiens) (P24723 whole entry): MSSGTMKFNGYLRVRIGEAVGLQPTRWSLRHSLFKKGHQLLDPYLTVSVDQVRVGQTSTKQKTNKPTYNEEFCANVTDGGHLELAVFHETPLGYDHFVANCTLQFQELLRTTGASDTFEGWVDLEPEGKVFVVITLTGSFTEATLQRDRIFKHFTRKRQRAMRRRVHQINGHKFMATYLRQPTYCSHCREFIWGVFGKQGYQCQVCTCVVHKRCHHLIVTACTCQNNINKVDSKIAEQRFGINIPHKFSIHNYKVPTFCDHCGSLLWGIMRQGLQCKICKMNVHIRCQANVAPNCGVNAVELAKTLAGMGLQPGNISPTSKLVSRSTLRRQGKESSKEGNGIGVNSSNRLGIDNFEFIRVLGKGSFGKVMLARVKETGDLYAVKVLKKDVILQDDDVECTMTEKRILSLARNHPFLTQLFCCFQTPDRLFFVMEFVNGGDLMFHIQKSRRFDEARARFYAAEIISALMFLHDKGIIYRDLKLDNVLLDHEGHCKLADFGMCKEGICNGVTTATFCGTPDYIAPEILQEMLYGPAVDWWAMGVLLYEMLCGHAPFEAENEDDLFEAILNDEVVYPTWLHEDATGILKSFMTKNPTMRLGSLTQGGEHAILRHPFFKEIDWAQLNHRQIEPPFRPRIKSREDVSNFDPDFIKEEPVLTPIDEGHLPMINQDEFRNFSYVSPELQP

[6] = biological target: Serine/threonine-protein kinase PAK 6 (Homo sapiens) (UniProt Q9NQU5); conditions: Compound concentration 1000.0 nM
[7] = biological target: Serine/threonine-protein kinase RIO1 (Homo sapiens) (UniProt Q9BRS2); conditions: Compound concentration 1000.0 nM
Sequence of Serine/threonine-protein kinase RIO1 (Homo sapiens) (Q9BRS2 whole entry): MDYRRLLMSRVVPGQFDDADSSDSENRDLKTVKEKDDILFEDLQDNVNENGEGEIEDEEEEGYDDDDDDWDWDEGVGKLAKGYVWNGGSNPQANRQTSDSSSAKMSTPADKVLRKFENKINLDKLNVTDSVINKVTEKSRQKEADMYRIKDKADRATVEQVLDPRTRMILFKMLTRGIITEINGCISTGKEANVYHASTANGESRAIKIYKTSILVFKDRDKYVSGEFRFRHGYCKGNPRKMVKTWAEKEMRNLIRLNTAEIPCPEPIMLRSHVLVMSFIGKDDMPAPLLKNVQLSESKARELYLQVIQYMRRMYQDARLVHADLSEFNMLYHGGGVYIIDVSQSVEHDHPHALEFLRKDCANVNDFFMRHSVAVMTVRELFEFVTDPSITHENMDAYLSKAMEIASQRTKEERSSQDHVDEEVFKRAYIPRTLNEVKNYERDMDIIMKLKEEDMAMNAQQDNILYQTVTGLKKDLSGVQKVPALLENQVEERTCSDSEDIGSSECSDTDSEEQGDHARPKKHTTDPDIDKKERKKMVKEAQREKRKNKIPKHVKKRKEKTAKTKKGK

[8] = system: Receptor-type tyrosine-protein kinase FLT3 (Homo sapiens), P36888 [UNDEFINED MUTATION]; conditions: Compound concentration 1000.0 nM
[9] = biological target: Protein kinase C delta type (Homo sapiens) (UniProt Q05655); conditions: Compound concentration 1000.0 nM
[10] = system: Leucine-rich repeat serine/threonine-protein kinase 2 (Homo sapiens), Q5S007 [G2019S]; conditions: Compound concentration 1000.0 nM
[11] = biological target: 5'-AMP-activated protein kinase catalytic subunit alpha-2 (Homo sapiens) (UniProt P54646); conditions: Compound concentration 1000.0 nM
[12] = system: Phosphatidylinositol 4,5-bisphosphate 3-kinase catalytic subunit alpha isoform (Homo sapiens), P42336 [E542K]; conditions: Compound concentration 1000.0 nM
Sequence of Phosphatidylinositol 4,5-bisphosphate 3-kinase catalytic subunit alpha isoform (Homo sapiens), P42336 [E542K] (P42336 whole entry E542K, canonical isoform): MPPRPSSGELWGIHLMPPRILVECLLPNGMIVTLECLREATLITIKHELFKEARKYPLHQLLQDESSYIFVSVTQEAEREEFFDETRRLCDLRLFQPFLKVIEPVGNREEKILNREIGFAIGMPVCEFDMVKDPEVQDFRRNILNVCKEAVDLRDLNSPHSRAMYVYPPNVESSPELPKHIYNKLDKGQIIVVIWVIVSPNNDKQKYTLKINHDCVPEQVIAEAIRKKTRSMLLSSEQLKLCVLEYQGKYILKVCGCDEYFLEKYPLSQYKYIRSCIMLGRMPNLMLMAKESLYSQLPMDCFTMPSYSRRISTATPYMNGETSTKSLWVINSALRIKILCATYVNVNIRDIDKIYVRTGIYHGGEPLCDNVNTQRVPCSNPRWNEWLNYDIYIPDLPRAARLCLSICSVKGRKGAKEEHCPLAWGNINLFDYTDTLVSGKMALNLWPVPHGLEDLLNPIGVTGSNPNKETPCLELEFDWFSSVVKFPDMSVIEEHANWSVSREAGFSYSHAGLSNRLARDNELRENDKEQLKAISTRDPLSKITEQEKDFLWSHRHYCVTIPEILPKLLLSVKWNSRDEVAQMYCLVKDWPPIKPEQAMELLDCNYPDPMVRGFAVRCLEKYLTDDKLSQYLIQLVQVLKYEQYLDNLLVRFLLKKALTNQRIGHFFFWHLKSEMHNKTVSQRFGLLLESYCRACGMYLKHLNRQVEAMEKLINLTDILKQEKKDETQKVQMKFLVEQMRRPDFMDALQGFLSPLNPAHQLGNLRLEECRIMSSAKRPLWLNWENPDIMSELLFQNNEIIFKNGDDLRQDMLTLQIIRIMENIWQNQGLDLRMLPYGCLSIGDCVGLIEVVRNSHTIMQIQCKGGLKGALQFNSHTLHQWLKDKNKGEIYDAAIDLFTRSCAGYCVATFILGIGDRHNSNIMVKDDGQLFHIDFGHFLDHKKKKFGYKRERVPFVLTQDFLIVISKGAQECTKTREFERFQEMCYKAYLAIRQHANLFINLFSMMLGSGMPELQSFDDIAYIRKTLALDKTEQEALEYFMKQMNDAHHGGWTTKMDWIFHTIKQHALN

[13] = biological target: Serine/threonine-protein kinase TAO2 (Homo sapiens) (UniProt Q9UL54); conditions: Compound concentration 1000.0 nM
[14] = biological target: Megakaryocyte-associated tyrosine-protein kinase (Homo sapiens) (UniProt P42679); conditions: Compound concentration 1000.0 nM
[15] = biological target: Platelet-derived growth factor receptor beta (Homo sapiens) (UniProt P09619); conditions: Compound concentration 1000.0 nM
[16] = biological target: Serine/threonine-protein kinase WNK1 (Homo sapiens) (UniProt Q9H4A3); conditions: Compound concentration 1000.0 nM
[17] = biological target: Phosphatidylinositol 4-phosphate 5-kinase type-1 gamma (Homo sapiens) (UniProt O60331); conditions: Compound concentration 1000.0 nM
[18] = biological target: Peripheral plasma membrane protein CASK (Homo sapiens) (UniProt O14936); conditions: Compound concentration 1000.0 nM
[19] = biological target: cGMP-dependent protein kinase 1 (Homo sapiens) (UniProt Q13976); conditions: Compound concentration 1000.0 nM
Sequence of cGMP-dependent protein kinase 1 (Homo sapiens) (Q13976 whole entry, canonical isoform): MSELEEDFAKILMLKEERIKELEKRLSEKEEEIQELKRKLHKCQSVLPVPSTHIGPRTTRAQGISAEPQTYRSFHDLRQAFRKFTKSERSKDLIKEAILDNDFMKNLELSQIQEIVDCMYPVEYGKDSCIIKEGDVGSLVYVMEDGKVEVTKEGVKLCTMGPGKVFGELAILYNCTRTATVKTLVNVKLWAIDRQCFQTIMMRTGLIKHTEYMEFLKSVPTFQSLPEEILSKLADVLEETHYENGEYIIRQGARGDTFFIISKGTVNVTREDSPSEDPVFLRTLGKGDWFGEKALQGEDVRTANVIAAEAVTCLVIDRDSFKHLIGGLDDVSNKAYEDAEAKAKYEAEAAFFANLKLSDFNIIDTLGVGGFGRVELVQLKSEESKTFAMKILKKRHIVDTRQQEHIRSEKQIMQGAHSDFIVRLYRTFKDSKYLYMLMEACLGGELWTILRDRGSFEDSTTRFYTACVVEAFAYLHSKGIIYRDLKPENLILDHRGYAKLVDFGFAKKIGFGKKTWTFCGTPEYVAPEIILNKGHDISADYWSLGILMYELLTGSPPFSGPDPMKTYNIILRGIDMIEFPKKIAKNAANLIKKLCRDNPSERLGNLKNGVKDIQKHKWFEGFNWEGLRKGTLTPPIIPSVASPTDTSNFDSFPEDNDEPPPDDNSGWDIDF

[20] = system: Phosphatidylinositol 4,5-bisphosphate 3-kinase catalytic subunit alpha isoform (Homo sapiens), P42336 [E545K]; conditions: Compound concentration 1000.0 nM
[21] = system: ALK tyrosine kinase receptor (Homo sapiens), Q9UM73 [C1156Y]; conditions: Compound concentration 1000.0 nM
[22] = biological target: Glycogen synthase kinase-3 beta (Homo sapiens) (UniProt P49841); conditions: Compound concentration 1000.0 nM
[23] = biological target: Tyrosine-protein kinase SYK (Homo sapiens) (UniProt P43405); conditions: Compound concentration 1000.0 nM
[24] = biological target: 5-hydroxytryptamine receptor 1A (Homo sapiens, UniProt P08908); assay: GPCRScan assay: inhibition of 5-HT1A; parameters: radioligand conc. used [nm] 0.5 – 1.0, parental cells stable CHO
Sequence of 5-hydroxytryptamine receptor 1A (P08908 whole entry): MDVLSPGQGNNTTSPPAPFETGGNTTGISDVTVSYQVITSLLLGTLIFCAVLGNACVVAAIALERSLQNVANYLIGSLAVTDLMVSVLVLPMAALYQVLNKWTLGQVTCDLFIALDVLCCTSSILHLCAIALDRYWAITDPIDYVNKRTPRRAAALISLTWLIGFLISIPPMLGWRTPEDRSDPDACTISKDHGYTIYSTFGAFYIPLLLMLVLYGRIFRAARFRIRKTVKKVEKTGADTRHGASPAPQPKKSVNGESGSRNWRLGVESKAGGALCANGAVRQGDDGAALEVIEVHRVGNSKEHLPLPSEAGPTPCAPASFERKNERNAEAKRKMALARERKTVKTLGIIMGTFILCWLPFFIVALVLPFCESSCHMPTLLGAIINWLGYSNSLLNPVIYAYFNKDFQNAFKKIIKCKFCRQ

[25] = biological target: Dual specificity tyrosine-phosphorylation-regulated kinase 2 (Homo sapiens) (UniProt Q92630); conditions: Compound concentration 1000.0 nM
[26] = biological target: Cyclin-dependent kinase 3 (Homo sapiens) (UniProt Q00526); conditions: Compound concentration 1000.0 nM
[27] = biological target: Mitogen-activated protein kinase 13 (Homo sapiens) (UniProt O15264); conditions: Compound concentration 1000.0 nM
[28] = biological target: Serine/threonine-protein kinase MARK1 (Homo sapiens) (UniProt Q9P0L2); conditions: Compound concentration 1000.0 nM
[29] = biological target: Serine/threonine-protein kinase MARK2 (Homo sapiens) (UniProt Q7KZI7); conditions: Compound concentration 1000.0 nM
[30] = biological target: Protein kinase C iota type (Homo sapiens) (UniProt P41743); conditions: Compound concentration 1000.0 nM
[31] = biological target: Tyrosine-protein kinase JAK2 (Homo sapiens) (UniProt O60674); conditions: Compound concentration 1000.0 nM
[32] = biological target: Platelet-derived growth factor receptor alpha (Homo sapiens) (UniProt P16234); conditions: Compound concentration 1000.0 nM
[33] = biological target: High affinity nerve growth factor receptor (Homo sapiens) (UniProt P04629); conditions: Compound concentration 1000.0 nM
[34] = biological target: Vascular endothelial growth factor receptor 1 (Homo sapiens) (UniProt P17948); conditions: Compound concentration 1000.0 nM
[35] = biological target: Serine/threonine-protein kinase pim-2 (Homo sapiens) (UniProt Q9P1W9); conditions: Compound concentration 1000.0 nM
[36] = biological target: Mu-type opioid receptor (Homo sapiens) (UniProt P35372); conditions: Compound concentration 10.0 uM
[37] = biological target: Protein kinase C theta type (Homo sapiens) (UniProt Q04759); conditions: Compound concentration 1000.0 nM
Sequence of Protein kinase C theta type (Homo sapiens) (Q04759 whole entry, looked up): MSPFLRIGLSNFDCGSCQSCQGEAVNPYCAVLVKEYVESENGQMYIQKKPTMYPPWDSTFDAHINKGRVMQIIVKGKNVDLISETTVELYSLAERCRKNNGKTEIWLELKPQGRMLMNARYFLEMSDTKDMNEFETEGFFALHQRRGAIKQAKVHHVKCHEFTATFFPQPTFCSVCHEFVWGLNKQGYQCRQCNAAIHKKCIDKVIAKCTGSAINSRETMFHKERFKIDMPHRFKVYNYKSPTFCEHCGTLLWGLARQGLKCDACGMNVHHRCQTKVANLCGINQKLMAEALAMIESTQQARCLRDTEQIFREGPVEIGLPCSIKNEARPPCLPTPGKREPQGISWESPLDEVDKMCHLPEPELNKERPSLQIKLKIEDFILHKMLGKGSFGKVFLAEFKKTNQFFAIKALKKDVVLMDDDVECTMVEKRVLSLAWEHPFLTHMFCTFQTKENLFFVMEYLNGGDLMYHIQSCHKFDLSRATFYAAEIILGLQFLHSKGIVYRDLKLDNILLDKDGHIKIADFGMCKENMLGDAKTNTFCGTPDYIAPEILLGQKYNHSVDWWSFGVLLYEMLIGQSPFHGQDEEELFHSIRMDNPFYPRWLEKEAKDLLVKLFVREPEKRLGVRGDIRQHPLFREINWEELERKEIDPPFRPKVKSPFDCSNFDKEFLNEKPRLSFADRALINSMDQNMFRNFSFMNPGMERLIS

[38] = biological target: Serine/threonine-protein kinase 10 (Homo sapiens) (UniProt O94804); conditions: Compound concentration 1000.0 nM
[39] = biological target: Focal adhesion kinase 1 (Homo sapiens) (UniProt Q05397); conditions: Compound concentration 1000.0 nM
[40] = biological target: Fibroblast growth factor receptor 2 (Homo sapiens) (UniProt P21802); conditions: Compound concentration 1000.0 nM
[41] = biological target: Dual specificity mitogen-activated protein kinase kinase 7 (Homo sapiens) (UniProt O14733); conditions: Compound concentration 1000.0 nM
[42] = biological target: Casein kinase I isoform epsilon (Homo sapiens) (UniProt P49674); conditions: Compound concentration 1000.0 nM
Sequence of Casein kinase I isoform epsilon (Homo sapiens) (P49674 whole entry, looked up, canonical isoform): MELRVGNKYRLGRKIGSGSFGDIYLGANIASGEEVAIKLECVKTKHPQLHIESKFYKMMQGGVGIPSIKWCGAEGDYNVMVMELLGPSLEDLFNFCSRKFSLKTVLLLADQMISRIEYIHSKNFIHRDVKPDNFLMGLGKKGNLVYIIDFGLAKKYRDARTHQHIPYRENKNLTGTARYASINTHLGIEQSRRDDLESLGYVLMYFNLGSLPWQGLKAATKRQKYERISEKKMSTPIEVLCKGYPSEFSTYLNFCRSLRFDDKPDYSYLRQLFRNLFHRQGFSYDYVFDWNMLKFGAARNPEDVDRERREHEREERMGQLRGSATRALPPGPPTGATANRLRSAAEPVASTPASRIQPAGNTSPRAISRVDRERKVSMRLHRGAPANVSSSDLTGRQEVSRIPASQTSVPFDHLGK

[43] = biological target: Receptor-interacting serine/threonine-protein kinase 1 (Homo sapiens) (UniProt Q13546); conditions: Compound concentration 1000.0 nM
[44] = biological target: Cyclin-dependent kinase 18 (Homo sapiens) (UniProt Q07002); conditions: Compound concentration 1000.0 nM
[45] = biological target: 5-hydroxytryptamine receptor 2A (Homo sapiens) (UniProt P28223); conditions: Compound concentration 10.0 uM
Sequence of 5-hydroxytryptamine receptor 2A (Homo sapiens) (P28223 whole entry): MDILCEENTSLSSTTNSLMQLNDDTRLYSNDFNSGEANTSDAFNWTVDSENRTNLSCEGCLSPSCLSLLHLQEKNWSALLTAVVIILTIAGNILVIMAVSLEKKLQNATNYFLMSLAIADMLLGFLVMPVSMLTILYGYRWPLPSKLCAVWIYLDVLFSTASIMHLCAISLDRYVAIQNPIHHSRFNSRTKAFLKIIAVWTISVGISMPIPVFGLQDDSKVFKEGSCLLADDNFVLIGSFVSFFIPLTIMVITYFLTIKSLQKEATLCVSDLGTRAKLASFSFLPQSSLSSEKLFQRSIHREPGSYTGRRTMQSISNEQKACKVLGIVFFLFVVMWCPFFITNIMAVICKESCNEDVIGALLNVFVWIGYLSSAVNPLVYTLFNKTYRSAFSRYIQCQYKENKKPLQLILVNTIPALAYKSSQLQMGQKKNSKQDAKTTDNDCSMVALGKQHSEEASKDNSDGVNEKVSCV

CC(=O)C1=C(C)N(c2cccc(C(F)(F)F)c2)C(=O)N[C@@H]1c1ccc(C#N)nc1 [BAY-678]
active: residual activity [19] 45.5%
inactive: residual activity [1] 77.4% | residual activity [2] 93.7% | residual activity [3] 100% | residual activity [4] 97.9% | residual activity [5] 91.3% | residual activity [6] 92.7% | residual activity [7] 87.5% | residual activity [8] 100% | residual activity [9] 100% | residual activity [10] 100% | residual activity [11] 80.4% | residual activity [12] 100% | residual activity [13] 94.4% | residual activity [14] 100% | residual activity [15] 94% | residual activity [16] 89% | residual activity [17] 100% | residual activity [18] 100% | residual activity [20] 77.5% | residual activity [21] 100% | residual activity [22] 100% | residual activity [23] 100% | residual activity [25] 100% | residual activity [26] 100% | residual activity [27] 74.6% | residual activity [28] 100% | residual activity [29] 100% | residual activity [30] 100% | residual activity [31] 87.1% | residual activity [32] 100% | residual activity [33] 100% | residual activity [34] 62.4% | residual activity [35] 98.2% | inhibition [36] -5.41% | residual activity [37] 83.3% | residual activity [38] 84.5% | residual activity [39] 100% | residual activity [40] 100% | residual activity [41] 100% | residual activity [42] 100% | residual activity [43] 85.8% | residual activity [44] 85.1% | inhibition [45] -0.427%
4.98 µM: Ki ([24]; read-out: Ki)
4.9 µM: Ki ([24]; read-out: pKi (converted))
